The source made the active and inactive calls. The calls are words filed in the database; no cut-off is given here.
Columns and labels:
[1] = tested on: Rattus norvegicus; assay: Reduction in plasma glucose level in Zucker diabetic fatty rat at 3 mg/kg, po administered 30 mins prior to challenge measured in 20 mins interval for 120 mins by oral glucose tolerance test relative to vehicle-treated control; format: functional; parameters: scale not given: the % may be the effect or the level left
[2] = tested on: Mus musculus; assay: Increase in GIP release in normoglycemic 129SVE mouse at 3 to 10 mg/kg, po measured after 45 mins; format: functional, organism-based
[3] = tested on: Mus musculus; assay: Reduction in plasma glucose level in normoglycemic 129SVE mouse at 3 to 10 mg/kg, po administered 30 mins prior to challenge measured in 20 mins interval for 120 mins by oral glucose tolerance test relative to vehicle-treated control; format: functional; parameters: scale not given: the % may be the effect or the level left; conditions: dose mg/kg 3-10
[4] = molecular target: Cytochrome P450 2C19 (Homo sapiens, UniProt P33261); assay: Inhibition of CYP2C19 (unknown origin); format: ADME
Cytochrome P450 2C19, sequence (P33261 whole entry): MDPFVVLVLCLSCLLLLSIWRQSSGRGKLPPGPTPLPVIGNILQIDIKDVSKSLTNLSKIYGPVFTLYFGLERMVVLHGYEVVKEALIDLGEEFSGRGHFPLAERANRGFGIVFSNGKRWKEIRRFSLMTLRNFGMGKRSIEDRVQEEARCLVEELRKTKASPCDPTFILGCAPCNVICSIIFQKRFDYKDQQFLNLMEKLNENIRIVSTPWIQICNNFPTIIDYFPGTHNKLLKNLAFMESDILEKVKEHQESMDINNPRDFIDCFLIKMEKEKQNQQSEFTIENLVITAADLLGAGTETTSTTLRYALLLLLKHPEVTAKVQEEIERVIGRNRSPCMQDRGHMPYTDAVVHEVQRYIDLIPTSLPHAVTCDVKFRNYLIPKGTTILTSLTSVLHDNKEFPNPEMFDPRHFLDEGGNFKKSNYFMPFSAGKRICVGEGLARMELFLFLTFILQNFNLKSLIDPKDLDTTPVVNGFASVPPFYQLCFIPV

[5] = Elimination half life in Sprague-Dawley rat at 2 mg/kg, po; format: ADME, organism-based; parameters: dose 2 mg/kg, route oral; conditions: in vivo, read-out: beta t1/2 (converted)
[6] = molecular target: Cytochrome P450 2C9 (Homo sapiens, UniProt P11712); assay: Inhibition of CYP2C9 (unknown origin); format: ADME
Cytochrome P450 2C9, sequence (P11712 whole entry): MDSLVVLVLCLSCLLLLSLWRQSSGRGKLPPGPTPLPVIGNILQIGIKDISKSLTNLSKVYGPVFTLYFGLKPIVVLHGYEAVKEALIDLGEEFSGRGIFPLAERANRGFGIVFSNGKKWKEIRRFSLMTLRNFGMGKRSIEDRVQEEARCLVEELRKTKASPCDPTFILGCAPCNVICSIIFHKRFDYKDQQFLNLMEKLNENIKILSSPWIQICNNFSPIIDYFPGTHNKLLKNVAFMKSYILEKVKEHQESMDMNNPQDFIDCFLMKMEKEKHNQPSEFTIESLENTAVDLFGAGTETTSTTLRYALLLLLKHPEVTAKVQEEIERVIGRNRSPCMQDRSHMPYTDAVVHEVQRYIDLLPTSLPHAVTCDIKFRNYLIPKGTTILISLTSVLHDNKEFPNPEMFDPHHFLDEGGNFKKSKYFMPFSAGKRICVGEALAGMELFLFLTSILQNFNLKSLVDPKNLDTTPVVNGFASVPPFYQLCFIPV

[7] = Stability in rat hepatocytes assessed as compound remaining after 90 mins; format: ADME, cell-based, Hepatocyte; conditions: read-out: Stability
[8] = tested on: Rattus norvegicus; assay: Reduction in plasma glucose level in Zucker diabetic fatty rat at 10 to 30 mg/kg, po administered 30 mins prior to challenge measured in 20 mins interval for 120 mins by oral glucose tolerance test relative to vehicle-treated control; format: functional; parameters: scale not given: the % may be the effect or the level left; conditions: dose mg/kg 10-30
[9] = molecular target: T1, Glucose-dependent insulinotropic receptor (Homo sapiens, UniProt Q8TDV5); assay: […] of human GPR119 activity by homogeneous time resolved fluorescence cyclase (cAMP) assay; format: functional
T1 sequence (Q8TDV5 whole entry): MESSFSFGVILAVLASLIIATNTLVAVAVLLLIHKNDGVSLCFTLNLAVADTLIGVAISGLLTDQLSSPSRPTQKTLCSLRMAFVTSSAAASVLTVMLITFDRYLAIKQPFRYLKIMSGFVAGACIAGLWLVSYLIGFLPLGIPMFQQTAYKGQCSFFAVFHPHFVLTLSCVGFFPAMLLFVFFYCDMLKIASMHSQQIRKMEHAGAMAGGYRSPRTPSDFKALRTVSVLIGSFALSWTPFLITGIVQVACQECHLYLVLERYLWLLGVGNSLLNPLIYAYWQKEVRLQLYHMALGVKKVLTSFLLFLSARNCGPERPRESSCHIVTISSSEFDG

[10] = Stability in human hepatocytes assessed as compound remaining after 90 mins; format: ADME, cell-based, Hepatocyte; conditions: read-out: Stability
[11] = tested on: Rattus norvegicus; assay: Clearance in Sprague-Dawley rat at 2 mg/kg, iv and po; format: ADME, organism-based; parameters: dose 2 mg/kg, route oral; conditions: in vivo
[12] = molecular target: Cytochrome P450 3A4 (Homo sapiens, UniProt P08684); assay: Inhibition of CYP3A4 (unknown origin); format: ADME
Cytochrome P450 3A4, sequence (P08684 whole entry): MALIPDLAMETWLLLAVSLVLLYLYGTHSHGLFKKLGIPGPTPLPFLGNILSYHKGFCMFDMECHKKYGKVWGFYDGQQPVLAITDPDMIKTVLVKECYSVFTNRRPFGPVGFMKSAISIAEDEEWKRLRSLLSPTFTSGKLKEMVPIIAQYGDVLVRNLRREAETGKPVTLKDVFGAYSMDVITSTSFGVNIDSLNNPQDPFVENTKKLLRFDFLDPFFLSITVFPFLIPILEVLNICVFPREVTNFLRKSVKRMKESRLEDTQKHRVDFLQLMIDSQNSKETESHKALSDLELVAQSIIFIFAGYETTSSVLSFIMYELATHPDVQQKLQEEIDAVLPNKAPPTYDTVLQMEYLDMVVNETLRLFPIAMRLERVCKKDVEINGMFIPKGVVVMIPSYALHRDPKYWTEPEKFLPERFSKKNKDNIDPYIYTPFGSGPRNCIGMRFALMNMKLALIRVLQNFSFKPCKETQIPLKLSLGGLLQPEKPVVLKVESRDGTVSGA

[13] = Efflux ratio of permeability in human Caco2 cells; format: ADME, cell-based; conditions: Caco-2
[14] = molecular target: T2, Glucose-dependent insulinotropic receptor (Homo sapiens) (UniProt Q8TDV5); assay: […] of human GPR119 activity by homogeneous time resolved fluorescence cyclase (cAMP) assay relative to AR231453; format: functional
T2 sequence (whole entry): T1 sequence (Q8TDV5 whole entry)

[15] = Stability in dog hepatocytes assessed as compound remaining after 90 mins; format: ADME, cell-based, Canis lupus familiaris, Hepatocyte; conditions: read-out: Stability
[16] = molecular target: Cytochrome P450 2D6 (Homo sapiens, UniProt P10635); assay: Inhibition of CYP2D6 (unknown origin); format: ADME
Cytochrome P450 2D6, sequence (P10635 whole entry): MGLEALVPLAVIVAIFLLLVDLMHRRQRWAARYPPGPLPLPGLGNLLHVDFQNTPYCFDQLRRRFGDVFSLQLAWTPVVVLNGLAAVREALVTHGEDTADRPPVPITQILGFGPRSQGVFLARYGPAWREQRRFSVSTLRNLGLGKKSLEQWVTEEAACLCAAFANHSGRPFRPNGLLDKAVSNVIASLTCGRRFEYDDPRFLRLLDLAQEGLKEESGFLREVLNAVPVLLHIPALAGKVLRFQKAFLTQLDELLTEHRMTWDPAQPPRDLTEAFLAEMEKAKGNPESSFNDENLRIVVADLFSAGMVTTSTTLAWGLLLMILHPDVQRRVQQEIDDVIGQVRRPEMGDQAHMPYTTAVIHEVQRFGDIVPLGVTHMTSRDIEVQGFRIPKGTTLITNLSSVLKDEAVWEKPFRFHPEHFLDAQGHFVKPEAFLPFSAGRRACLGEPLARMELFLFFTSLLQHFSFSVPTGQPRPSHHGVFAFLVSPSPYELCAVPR

[17] = molecular target: T3, Glucose-dependent insulinotropic receptor (Rattus norvegicus) (UniProt Q7TQN8); assay: […] of rat GPR119 activity by homogeneous time resolved fluorescence cyclase (cAMP) assay relative to AR231453; format: functional
T3 sequence (whole entry): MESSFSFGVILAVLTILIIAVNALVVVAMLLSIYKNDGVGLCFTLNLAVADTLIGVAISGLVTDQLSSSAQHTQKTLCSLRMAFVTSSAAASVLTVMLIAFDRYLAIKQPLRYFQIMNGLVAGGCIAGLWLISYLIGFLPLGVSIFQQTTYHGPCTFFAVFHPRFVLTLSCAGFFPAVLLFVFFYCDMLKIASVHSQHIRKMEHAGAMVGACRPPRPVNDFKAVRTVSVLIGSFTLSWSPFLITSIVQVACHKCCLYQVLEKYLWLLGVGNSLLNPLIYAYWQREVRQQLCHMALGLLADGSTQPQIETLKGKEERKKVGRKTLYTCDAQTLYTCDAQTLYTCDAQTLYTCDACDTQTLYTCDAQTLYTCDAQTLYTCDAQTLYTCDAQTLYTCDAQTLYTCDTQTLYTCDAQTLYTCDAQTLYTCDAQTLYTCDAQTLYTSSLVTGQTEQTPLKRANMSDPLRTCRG

[18] = tested on: Rattus norvegicus; assay: Volume of distribution at steady state in Sprague-Dawley rat at 2 mg/kg, iv and po; format: ADME, organism-based; parameters: dose 2 mg/kg, route oral; conditions: in vivo
[19] = tested on: Rattus norvegicus; assay: Reduction in plasma glucose level in Zucker diabetic fatty rat at 10 to 30 mg/kg, po administered 30 mins prior to challenge measured in 20 mins interval for 120 mins by oral glucose tolerance test relative to vehicle-treated control in presence of sitagliptin; format: functional; parameters: scale not given: the % may be the effect or the level left; conditions: dose mg/kg 10-30
[20] = tested on: Rattus norvegicus; assay: Bioavailability in Sprague-Dawley rat at 2 mg/kg, iv and po; format: ADME, organism-based; conditions: in vivo
[21] = molecular target: CYP2C9 (Homo sapiens, UniProt P11712); assay: Ratio of APD597 IC50 to compound IC50 for CYP2C9 (unknown origin); format: ADME; conditions: read-out: Ratio IC50
CYP2C9, sequence (P11712 whole entry): as the sequence (P11712 whole entry) above

[22] = molecular target: T4, Cytochrome P450 1A2 (Homo sapiens, UniProt P05177); assay: Inhibition of CYP1A2 (unknown origin); format: ADME
T4 sequence (P05177 whole entry): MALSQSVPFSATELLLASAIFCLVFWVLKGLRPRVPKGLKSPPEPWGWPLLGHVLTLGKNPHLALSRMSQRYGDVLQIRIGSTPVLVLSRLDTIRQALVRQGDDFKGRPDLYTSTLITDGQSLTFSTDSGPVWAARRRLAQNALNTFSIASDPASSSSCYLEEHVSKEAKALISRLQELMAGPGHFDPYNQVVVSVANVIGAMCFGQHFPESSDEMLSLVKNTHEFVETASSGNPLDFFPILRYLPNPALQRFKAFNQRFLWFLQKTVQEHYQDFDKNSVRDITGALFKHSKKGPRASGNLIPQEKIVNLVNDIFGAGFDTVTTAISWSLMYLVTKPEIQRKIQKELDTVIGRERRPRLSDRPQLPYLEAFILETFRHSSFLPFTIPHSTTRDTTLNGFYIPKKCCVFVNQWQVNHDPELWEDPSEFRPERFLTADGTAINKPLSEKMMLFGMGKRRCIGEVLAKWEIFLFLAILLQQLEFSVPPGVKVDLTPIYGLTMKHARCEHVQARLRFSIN

[23] = molecular target: T5, Glucose-dependent insulinotropic receptor (Rattus norvegicus, UniProt Q7TQN8); assay: […] of rat GPR119 activity by homogeneous time resolved fluorescence cyclase (cAMP) assay; format: functional
T5 sequence (Q7TQN8 whole entry): T3 sequence (whole entry)

[24] = tested on: Rattus norvegicus; assay: AUClast in Sprague-Dawley rat at 2 mg/kg, iv and po; format: ADME, organism-based, Plasma; parameters: dose 2 mg/kg, route oral; conditions: in vivo
[25] = Stability in monkey hepatocytes assessed as compound remaining after 90 mins; format: ADME, cell-based, Macaca mulatta, Hepatocyte; conditions: rhesus monkey, read-out: Stability

Q: Which Activity [1] does the source give for `N[C@@H](CC(=O)N1CCn2c(nnc2C(F)(F)F)C1)Cc1cc(F)c(F)cc1F` [SITAGLIPTIN] here?
A: 70%

Q: With `Cc1nc(S(C)(=O)=O)ccc1Oc1ncnc(OC2CCN(C(=O)OC3(C)CC3)CC2)c1F` as the compound, how does the Activity [2] read?
A: Active

Q: What about the Activity [3] of the same compound?
A: 35%

Q: What about the IC50 [4] of the same compound?
A: 23.4 µM

Q: What about the half-life [5] of the same compound?
A: 163 min

Q: What about the IC50 [6] of the same compound?
A: 25.7 µM

Q: What about the remaining at 1.5 h [7] of the same compound?
A: 51%

Q: What about the Activity [8] of the same compound?
A: 50%

Q: What about the EC50 [9] of the same compound?
A: 13.8 nM

Q: What about the remaining at 1.5 h [10] of the same compound?
A: 100%

Q: What about the CL [11] of the same compound?
A: 1.19 L/kg/h

Q: And the “inhibition (INH)” value [12]?
A: Not Active

Q: And the efflux ratio [13]?
A: 1

Q: And the Efficacy [14]?
A: 94%

Q: And the remaining at 1.5 h [15]?
A: 89%

Q: And the “inhibition (INH)” value [16]?
A: Not Active

Q: What about the Efficacy [17] of the same compound?
A: 93%

Q: What about the Vdss [18] of the same compound?
A: 2.91 L/kg

Q: And the Activity [19]?
A: 70%

Q: And the F [20]?
A: 72.7%

Q: And the selectivity ratio [21]?
A: 4

Q: What about the “inhibition (INH)” value [22] of the same compound?
A: Not Active

Q: And the EC50 [23]?
A: 169 nM

Q: And the AUClast [24]?
A: 1220 ng·h/mL

Q: What about the remaining at 1.5 h [25] of the same compound?
A: 50%

Reference: ChEMBL document CHEMBL3352461, “Discovery and optimization of 5-fluoro-4,6-dialkoxypyrimidine GPR119 agonists” (Bioorg Med Chem Lett, 2014)
